Measured values from paper PMC3755965, “A Small Peptide with Therapeutic Potential for Inflammatory Acne Vulgaris” (PLoS ONE, 2013).
≈ marks a conversion by molar mass, not a printed value. Where a SMILES comes first, the peptide text is derived from it.

Legend:
S. epidermidis 09B2490 = details: LB broth, aerobic, 37°C, 24 or 48 h, A600; mean of three independent experiments in duplicates
Method: (§1) The strains of P. acnes were cultured in brain heart infusion (BHI) broth (HKM, Guangzhou, China) with 1% glucose at 37°C under an anaerobic atmosphere using MGC Anaeropack systems (Mitsubishi, Gas Chemical Co., Inc, Japan), respectively. […] S. epidermidis (09A3726 and 09B2490) and S. aureus (ATCC 2592) were grown in LB (Luria-Bertani) broth as our previous report.
(§2) Briefly, samples were prepared as a stock solution in 0.9% salt water at a series of concentration. 890 µl special broth (BHI broth for P. acnes, LB broth for S. epidermidis and S. aureus), 100 µl bacterial suspension (10^8 CFU/ml) and 10 µl test sample were put together in the test tube under anaerobic conditions at 37°C for 72 h for P. acnes and under aerobic conditions at 37°C for 24 or 48 h for S. epidermidis and S. aureus. An absorbance at 600 nm was measured by a microplate reader to estimate bacterial growth. The MIC was defined as the lowest concentration of test sample completely inhibiting microorganism’s growth.

[1] = test system: P. acnes (IS, DR), clinically isolated strain with clindamycin resistance; details: clindamycin-resistant clinical isolate; BHI broth, anaerobic, 37°C, 72 h, A600; mean of three independent experiments in duplicates; ND = no detectable activity
Method: as §1, §2

P. acnes ATCC6919 = details: BHI broth, anaerobic, 37°C, 72 h, A600; mean of three independent experiments in duplicates; ND = no detectable activity
Method: as §1, §2

S. epidermidis 09A3726 = details: LB broth, aerobic, 37°C, 24 or 48 h, A600; mean of three independent experiments in duplicates; ND = no detectable activity
Method: as §1, §2

P. acnes ATCC11827 = details: BHI broth, anaerobic, 37°C, 72 h, A600; mean of three independent experiments in duplicates; ND = no detectable activity
Method: as §1, §2

[2] = Effect of human plasma on antibacterial activity (inhibition zone); assay type: in vitro ADME; details: 100 µM, 37°C, inhibition zone on P. acnes ATCC6919, S. epidermidis 09A3726, S. aureus 09B2499, three experiments
Method: LZ1 or human cathelicidin antimicrobial peptide LL-37 (control) was mixed with human plasma (final concentration 100 µM) for 0, 0.5, 1, 2, 4, 6 and 8 hours at 37°C, respectively. Residual antibacterial activity was evaluated by using 10 µl aliquot of the mixture to measure inhibitory zone on bacterial growth on BHI or LB broth containing 0.7% agar as previously described. The diameters of inhibition zones were recorded after 72-hour incubation for P. acnes and 24-hour incubation for S. epidermidis and S. aureus, respectively.

human red blood cells = details: up to 320 µg/ml, 37°C, 30 min, A540, relative to 1% Triton X-100, mean of five experiments
Method: Hemolysis assay was undertaken using human red blood cells in liquid medium as our previous reports. Serial dilutions of testing sample were incubated with human red cells at 37°C. After the incubation for 30 min, the cells were centrifuged and the absorbance in the supernatant was measured at 540 nm. Maximum hemolysis was determined by adding 1% Triton X-100 to a sample of cells. Hemolysis of testing samples was calculated as the percentage of cytotoxicity of Triton X-100.

[3] = test system: Human HaCaT keratinocyte cells; details: 20 to 200 µg/ml, 24-h treatment, MTT, A570, mean of five experiments
Method: Human HaCaT keratinocyte cells (1×10^5 cells/ml, obtained from Cell Bank of Kunming Institute of Zoology, Chinese Academy of Sciences) were cultured in 96-well plates with Dulbecco’s modified Eagle’s medium (DMEM, Gibco) containing 10% fetal calf serum and penicillin (100 u/ml)-streptomycin (100 mg/ml) at 37°C in a humidified 5% CO2 atmosphere. Cell viability was evaluated by conventional 3-(4, 5-dimethyl-2-thiazolyl)-2, 5-diphenyl-2H-tetrazolium bromide (MTT) reduction assays. After a 24-h treatment by testing sample, 20 µl of MTT (5 mg/ml) was added to each well. The MTT solution was then removed and 200 µl dimethyl sulfoxide (DMSO) was added to solubilize the MTT-formazan cristals in living cells. The absorbance at 570 nm of the resulting solution was measured. The experiments were performed in triplicate.

S. aureus 09B2499 = details: LB broth, aerobic, 37°C, 24 or 48 h, A600; mean of three independent experiments in duplicates
IL-1β = IL-1β in ear homogenate, ELISA; assay type: in vivo, Kunming mice
Method: (§3) Ears of Kunming mice were injected with live P. acnes (ATCC 6919) as described above. The ear was excised on day 1 to day 5 after bacterial injection respectively, and then homogenized in 0.9% salt water (1 ml per ear) with a hand tissue grinder. The supernatant was collected after the centrifugation at 2000 × g for 10 min and then was used for cytokine measurement. The concentration of TNF-α and IL-1β was measured by using enzyme-linked immunosorbent assay kits (Excell Bio, Shanghai, China).

[4] = test system: P. acnes (ATCC6919)-induced ear swelling; assay: P. acnes-induced ear swelling in mice; assay type: in vivo, Kunming mice; details: mean of four experiments
TNF-α = TNF-α in ear homogenate, ELISA; assay type: in vivo, Kunming mice; details: day 1 to day 5, epicutaneous 0.2% gel, in words
Method: as §3

[5] = test system: infiltrated inflammatory cells; assay: Histological check of mouse ears (HE stain); assay type: in vivo, Kunming mice; details: 24 h after P. acnes challenge, epicutaneous 0.2% gel, in words
Text: Ears of Kunming mice were excised and fixed in neutral-buffered 10% formalin solution and embedded in paraffin by routine procedures. The slides were cut at approximately 4 µm and stained routinely with haematoxylin and eosin (HE). Images were obtained using a Nikon Eclipse 80i microscope (Nikon, Japan).

P. acnes (ATCC6919) = assay: P. acnes colonization within mouse ear (CFU count); assay type: in vivo, Kunming mice; details: for P. acnes colonized within the ear: mean of four experiments
Method: As described previously, P. acnes (ATCC6919) was grown to the exponential-phase in BHI broth and then centrifuged at 1000 g for 10 min. The bacterium pellet was then washed twice and re-suspended in 0.9% salt water (5×10^8 CFU/ml). Kunming mice (20 ± 2 g) were anesthetised by intraperitoneal (IP) administration of ketamine (50 mg/kg) and xylazine (15 mg/kg), and then 20 µl P. acnes solution was intradermally injected into left ears of the mice. Right ears received the same volume of 0.9% salt water. Placebo or 0.2% LZ1 gel (Polyethylene Glycol (PEG) 400: PEG 4000, 1:1) was applied on the surface of right ear skin after injection with P. acnes or saline. […] Ear thickness after 24 h bacterial injection was measured using a micro caliper.
To determine P. acnes number in the ear, the left ear was cut off after 24 h bacterial injection and the mice were sacrificed immediately by cervical dislocation. The ears were wiped to remove gel and then homogenized in 0.9% salt water (1 ml per ear) with a hand tissue grinder. CFUs of P. acnes in the ear were enumerated by plating serial dilutions of the homogenate on BHI plates and the bacterial numbers were counted after 72 h incubation under anaerobic conditions at 37°C.
To further investigate the therapeutical effect, the increase in ear thickness and the P. acnes number in the ear after bacterial injection were determined continuously on day 2 to day 5 as described above. […] All the experimental protocols to use animals were approved by the Animal Care and Use Committee at Kunming Institute of Zoology, Chinese Academy of Sciences.

CC(C)[C@H](N)C(=O)N[C@@H](CCCCN)C(=O)N[C@@H](CCCNC(=N)N)C(=O)N[C@@H](Cc1c[nH]c2ccccc12)C(=O)N[C@@H](CCCCN)C(=O)N[C@@H](CCCCN)C(=O)N[C@@H](Cc1c[nH]c2ccccc12)C(=O)N[C@@H](Cc1c[nH]c2ccccc12)C(=O)N[C@@H](CCCNC(=N)N)C(=O)N[C@@H](CCCCN)C(=O)N[C@@H](Cc1c[nH]c2ccccc12)C(=O)N[C@@H](CCCCN)C(=O)N[C@@H](CCCCN)C(=O)N[C@@H](Cc1c[nH]c2ccccc12)C(=O)N[C@H](C(N)=O)C(C)C [LZ1] (H-VKRWKKWWRKWKKWV-NH2)
MIC (S. epidermidis 09B2490): 2.3 µg/mL (≈ 1.03 µM) | MIC [1]: 0.6 µg/mL (≈ 0.269 µM) | MIC (P. acnes ATCC6919): 0.6 µg/mL (≈ 0.269 µM) | MIC (S. epidermidis 09A3726): 4.7 µg/mL (≈ 2.11 µM) | MIC (P. acnes ATCC11827): 0.6 µg/mL (≈ 0.269 µM) | antibacterial activity after incubation with human plasma ([2]; 8 hours): could not be significantly affected | hemolytic activity (human red blood cells): no more than 5.2% | effects on cell viabilities (cytotoxicity) [3]: no more than 5.6% | MIC (S. aureus 09B2499): 2.3 µg/mL (≈ 1.03 µM)

CCC[C@@H]1C[C@@H](C(=O)N[C@@H]([C@H]2O[C@H](SC)[C@H](OP(=O)(O)O)[C@@H](O)[C@H]2O)[C@H](C)Cl)N(C)C1 [clindamycin, clindamycin phosphate]
IL-1β concentration in mouse ear (IL-1β; day 1, 1 ml saline per ear, vehicle 483, three experiments): 346 pg/mL | IL-1β concentration in mouse ear (IL-1β; day 2, 1 ml saline per ear, vehicle 221, three experiments): 83 pg/mL | IL-1β concentration in mouse ear (IL-1β; day 3, 1 ml saline per ear, vehicle 48, three experiments): 43 pg/mL | IL-1β concentration in mouse ear (IL-1β; day 4, 1 ml saline per ear, vehicle 30, three experiments): 45 pg/mL | IL-1β concentration in mouse ear (IL-1β; day 5, 1 ml saline per ear, vehicle 41, three experiments): 46 pg/mL | ear thickness, % of the control (un-challenged) ([4]; day 1 after P. acnes injection, 0.2% gel epicutaneous): 147% | ear thickness, % of the control (un-challenged) ([4]; day 2, 0.2% gel epicutaneous once per day): 145% | ear thickness, % of the control (un-challenged) ([4]; day 3, 0.2% gel epicutaneous once per day): 130% | ear thickness, % of the control (un-challenged) ([4]; day 4, 0.2% gel epicutaneous once per day): 125% | ear thickness, % of the control (un-challenged) ([4]; day 5, 0.2% gel epicutaneous once per day): 105% | effect on TNF-α secretion induced by P. acnes challenge (TNF-α): no inhibitory effect | number of infiltrated inflammatory cells [5]: decreased infiltrated inflammatory cells | P. acnes colonized within the ear (P. acnes (ATCC6919); Day 1, 0.2% gel epicutaneous): 360±77 10^3 CFU per ear | P. acnes colonized within the ear (P. acnes (ATCC6919); Day 2, 0.2% gel epicutaneous once per day): 32±4.1 10^3 CFU per ear | P. acnes colonized within the ear (P. acnes (ATCC6919); Day 3, 0.2% gel epicutaneous once per day): 14±1.7 10^3 CFU per ear | P. acnes colonized within the ear (P. acnes (ATCC6919); Day 4, 0.2% gel epicutaneous once per day): 6±0.5 10^3 CFU per ear | P. acnes colonized within the ear (P. acnes (ATCC6919); Day 5, 0.2% gel epicutaneous once per day): 1.5±0.1 10^3 CFU per ear | reduction in the number of P. acnes colonized within the ear (P. acnes (ATCC6919); day 2, versus vehicle): 58.9% | reduction in the number of P. acnes colonized within the ear (P. acnes (ATCC6919); day 3, versus vehicle): 58.8% | reduction in the number of P. acnes colonized within the ear (P. acnes (ATCC6919); day 4, versus vehicle): 71.4% | reduction in the number of P. acnes colonized within the ear (P. acnes (ATCC6919); day 5, versus vehicle): 50%

LL-37: human cathelicidin antimicrobial peptide LL-37 (control)
antibacterial activity after incubation with human plasma ([2]; 1 hour): completely lost its antibacterial activity
